One compound from patent publication US4925649A, “Radioiodinated diacylglycerol analogues and methods of use” (The University of Michigan, priority 1987, dated 1990) can be followed below.

The test concerns intracellular PK-C. Nature of the test: [3H]PDBu binding to intact HL-60 cells. In kind it is cell-based, human. Conditions: 37° C., 30 minutes, FIG. 9, compared with naturally occurring diacylglycerol DiC8. The method, then:
The diacylglycerol composition under investigation was stored in chloroform at -20° C. Prior to use, the diacylglycerol was dried under nitrogen and sonicated in RPMI-1640 growth media. HL-60 cells, derived from a human leukemia cell line, were cultured in RPMI-1640 growth media containing 10% horse serum. The cells were placed in fresh serum-containing growth media 24 hours prior to the experiment. Then, cells in log phase growth were placed in normal serum containing growth media with 20 mM HEPES buffer (pH 7.4) at a concentration of 5×10^6 cells/ml. The cells were incubated at 37° C. in 5% CO2 /air in the presence of [^3 H]PDBu and various concentrations of diacylglycerol.
Binding reactions were stopped after 30 minutes by filtering the cells over Whatman glass fiber GF/C filters and rinsing with cold phosphate buffered saline (pH 7.4). The filters were then dried and counted with a scintillation counter. Nonspecific binding was determined by adding 2 μM non-tritiated phorbol diester to parallel binding reactions. Specific [^3 H]PDBu binding was calculated by subtracting nonspecific [^3 H]PDBu from the total. All binding data are expressed in terms of specific binding. Specific binding typically represented 80% of the total.

SMILES strings stand for the structures.

Regarding `CCCCCCCC(=O)OCC(CO)OC(=O)CCc1cccc(I)c1` (racemic) [OIPG, 1-octanoyl-2-[3-(m-iodophenyl)propanoyl]-rac-glycerol], the “diacylglycerol inhibition of [3H]PDBu binding in intact HL-60 cells” value is “capable of entering intact cells and binding to intracellular PK-C in a manner similar to a naturally occurring diacylglycerol”.
